Key:
[1] = assay type: in vivo; conditions: rat, tail vein; 300 μl of 5% free or 1 ml of 0.2% encapsulated
Experimental: 300 μl of 5% fluorescein sodium or 1 ml of 0.2% encapsulated fluorescein sodium, were administered to the rat through the tail vain and the retina monitored. Free fluorescein was removed by use of ultracentrifugation and PD-10 columns as outlined earlier.
It is important to highlight that the retinal blood vessels were not seen with the encapsulated material (A-C) as they are without (D-F), although there is a hint of arterial wall fluorescence in the encapsulated treated eye at 34 minutes (B). […] They were absent from the non-encapsulated eyes. These focal patches of fluorescence are believed to be intact liposomes containing fluorescein. […] The appearance, of fluorescent patches or “monofocal leakages” of sodium flourescein is similar to that that has been described when BBB disruption occurs in the brain (see FIG. 20 from Natah, S. S. et al. J Appl Physiol 107: 1348-1356 2009).

[2] = assay type: in vivo; conditions: rat, tail vein, 2 hours; 300 μl of 5% free or 1 ml of 0.2% encapsulated
Experimental: 300 μl of 5% fluorescein sodium or 1 ml of 0.2% encapsulated fluorescein sodium, were administered to the rat through the tail vain and the retina monitored. Free fluorescein was removed by use of ultracentrifugation and PD-10; columns as outlined earlier. After 2 hours; under general anaesthesia, the animals underwent fixation perfusion with 4% paraformaldehyde. Brains were stored in 4% paraformaldehyde overnight, following which 800 um slices were cut and examined under fluorescent confocal microscopy.
The images in FIG. 24 come from similar regions in the brain from an animal with intravenous encapsulated fluorescein sodium (A-B) compared to one with plain intravenous fluorescein sodium (C-D). Both fluorescence (A, C) and transmission (B, D) images are shown. […] This confirms the fact that encapsulation allows the fluorescein sodium to cross the BBB.
The appearance of fluorescent patches or “monofocal leakages” of sodium flourescein is similar to that that has been described when BBB disruption occurs in the brain, as discussed earlier (Natah, S. S. et al. J Appl Physiol 107: 1348-1356 2009).

[3] = assay type: in vivo; conditions: intravitreal injection, eyes imaged after 3 hours
Experimental: To access the release of encapsulated material, liposomes containing encapsulated αBT and annexin V-776 were administered via Intravitreal injection and the eyes were imaged after 3 hours.

[4] = In vivo labelling of retinal vasculature by alpha-bungarotoxin
From the text: The invention also provides alpha-bungarotoxin (αBT) for use in labelling the retinal vasculature of a subject. This is in vivo labelling. αBT is know to bind to nicotinic acetylcholine receptors (nAChRs) and is readily used to label the end plate of neuromuscular junctions ex vivo. It has not been applied to labelling in vivo due to it's potential neuromuscular inhibitory effects when used systemically. However, such problems are not seen when using it directly in the eye. The wall of the retinal vasculature, and in particular the arteries, is a muscular environment housing nAChRs. Therefore, αBT labels them specifically. This patterned labelling in the eye is something that is otherwise very difficult to achieve. Preferably, the αBT is administered directly to the retinal vasculature of the eye, for example, by intravitreal injection. Preferably, the αBT is labelled with an imaging moiety such as fluorescein.

## O=C1OC2(c3ccc(O)cc3Oc3cc(O)ccc32)c2ccccc21 [Fluorescein, fluorescein sodium]
[1]
  crossing of the blood retinal barrier: unable to cross an intact blood retinal barrier and remains isolated to the vessels
[2]
  fluorescence in brain slices: no signal at all

## Annexin V-776: labelled annexin V, anionic phospholipid binding protein, given with liposomes
[3]
  release of cargo from liposomes: successful release

## alpha-bungarotoxin [αBT]
[4]
  labelling of retinal vessels: specifically labels the arteries in the retina

Reference: patent US9545392B2, “Carrier comprising a vitamin E derivative” (UCL BUSINESS PLC, priority 2007, dated 2017)
